According to the NIST ThermoML archive (doi:10.1016/j.jct.2012.05.013):

Experiments:
[1] = for vapor or sublimation pressure: Liquid, Closed cell (Static) method
[2] = Molar enthalpy of transition or fusion; settings: Crystal; DSC
[3] = molar enthalpy of vaporization or sublimation; settings: 298.15 K; Crystal; Static calorimetry

CN(C)c1cccc2cccc(N(C)C)c12 [1,8-bis(dimethylamino)naphthalene]
[1]
Settings	vapor or sublimation pressure [kPa]
322.96 K	0.00189
327.93 K	0.00285
332.9 K	0.00428
337.88 K	0.00638
342.85 K	0.00921
347.82 K	0.01325
352.78 K	0.01867
357.73 K	0.02622
362.69 K	0.03643
367.65 K	0.0494
372.6 K	0.06696
377.55 K	0.08952
382.51 K	0.1184

Settings	Triple point temperature [K]
[1], Crystal, DTA	322.2

Settings	Molar enthalpy of transition or fusion [kcal/mol]	molar enthalpy [kcal/mol]
[2]	4.18	–
[3]	–	22.4
